Data from patent US6706754B2, “Reversed amidines and methods of using for treating, preventing, or inhibiting leishmaniasis” (The United States of America as represented by the …, priority 2000, dated 2004).

Legend:
[1] = tested on: L. donovani infected macrophages; experiment: Infected macrophage assay, L. donovani; type: cell-based; conditions: for Macrophage IC50 L. donovani: J774.G8 mouse macrophages, 72 hours, 37° C., number of infected macrophages inhibited by 50%
Text: (§1) A one week old, confluent culture of J774.G8 mouse macrophages was washed three times with Hank's Balanced Salt Solution (HBSS) without calcium and magnesium (Sigma, St. Louis, Mo.). The J774.G8 mouse macrophages are a continuous cell line that have been cited in the literature as supporting continuous and intracellular growth of various Leishmania sp. and they have been used for drug assays against intracellular parasites, Trypanosoma cruzi and Leishmania sp. See Alcina, A., et al. (1988) Antimicrobial Agents & Chemotherapy. 32(9):1412-5; Mendez, S., et al. (1996) International Journal for Parasitology 26(6):619-22; Hodgkinson, V. H., et al. (1996) Experimental Parasitology 83(1):94-105; and Chang, K. P. (1980) Science 209(4462): 1240-42, which are herein incorporated by reference.
(§2) The macrophages were then incubated at 37° C. in a humidified 5% CO2 incubator for 15 minutes with a Trypsin-EDTA (0.05% Trypsin, 0.53 mM EDTA 4Na) solution (GIBCO BRL, Grand Island, N.Y.). The macrophages were then detached with a cell scraper and suspended by vigorous pipetting. The macrophages were then mixed with a late log phase culture of L. mexicana promastigotes to yield a solution comprising about 5×10^5 macrophages per ml and about 25×10^5 promastigotes per ml in DMEM (pH 7.4) supplemented with 10% heat inactivated fetal calf serum comprising penicillin (50 units/ml) and streptomycin (50 μg/ml).
(§3) The macrophage-parasite mixture was then pipetted into 96-well flat-bottom plates (Costar, Cambridge, Mass.) at 200 μl per well. Infection and attachment of the macrophages was allowed to occur over a period of about 48 hours at 33° C. in a humidified 5% CO2 incubator. The wells were washed three times with HBSS to remove extracellular parasites. Each well was then treated with serial dilutions of a given candidate compound in DMEM.
(§4) The treated plate was incubated for about 72 hours at 33° C. in a humidified 5% CO2 incubator. The macrophages in each well were detached into the DMEM used for the incubation by pipetting and scraping with the tip of a microliter pipettor. 75 μl of the cell suspension was transferred to a cytospin funnel and the cells were centrifuged onto microscope slides at 800 rpm for 5 minutes using a Cytospin centrifuge (Shandon, Pittsburgh, Pa.).
(§5) The slides were air dried and then fixed in methanol for 5 seconds. After the methanol evaporated, the slides were stained with 5% Giemsa stain (Fisher, Suwanee, Ga.) in phosphate buffer comprising 3.1 mM potassium phosphate dibasic and 8.3 mM sodium phosphate monobasic for 45 minutes. After thorough washing with flowing tap water, the slides were air dried and then viewed by oil immersion microscopy to determine percentage of infected cells. A cell was considered to be infected if it comprised one or more amastigote with a visible parasite nucleus and kinetoplast. Counting parasites and counting infected cells provided similar results when determining IC50 values.
(§6) The IC50 values (the concentration of the compound that inhibited the number of infected macrophages by 50%) were determined with the software program TableCurve (SPSS Science, Chicago, Ill.) using the following dose-response equation: y=a+b/(1+(x/c)^d), where x=the drug concentration, y=absorbance at 490 nm, a=upper asymptote, b=slope, c=IC50 and d=lower asymptote. FIG. 3 provides the graphical data obtained for compound 1DWB667 as an example.
The susceptibility of L. donovani infected macrophages to the compounds of the present invention were preformed by a modified protocol for L. mexicana infected macrophages above, wherein all incubations of the parasite infected macrophages were done at 37° C. rather than 33° C. FIG. 4 provides the graphical data for compound 1DWB667 as an example.

[2] = tested on: L. mexicana infected macrophages; experiment: Infected macrophage assay, L. mexicana; type: cell-based; conditions: for Macrophage IC50 L. mexicana: J774.G8 mouse macrophages, 72 hours, 33° C., number of infected macrophages inhibited by 50%
Protocol: The susceptibilities of L. mexicania infected macrophages to candidate compounds were determined by the following assay.
as §1, §2, §3, §4, §5, §6

J774.G8 macrophages = experiment: Macrophage toxicity assay (sulforhodamine B); type: cell-based, mouse; conditions: for IC50 (macrophage toxicity): 72 hours, 37° C., macrophage growth inhibited by 50%; for toxicity to the macrophage (in words): in vitro
Protocol: The toxicity of the candidate compounds on J774.G8 macrophages was measured using a sulforhodamine B (Molecular Probes, Eugene, Oreg.) based dye assay.
Specifically, a confluent culture of macrophages in a T75 culture flask was harvested by replacing the growth medium (DMEM supplemented with 10% heat inactivated fetal calf serum, 50 units/ml penicillin, and 50 μg/ml streptomycin) with 25 ml of fresh medium and scraping the cells from the bottom of the culture flask. Cell clumps were broken up by gentle pipetting and the cell suspension was transferred to a 50 ml conical centrifuge tube. The cells were then pelleted by centrifugation at 1,000 rpm at 4° C. for 5 minutes. The supernatant was then removed and the cells were resuspended in 15 ml DMEM.
After counting an aliquot of the cell suspension, the macrophages were then diluted to about 1×10^5 cells/ml in DMEM and 180 μl was added to each well of a 96 well tissue culture plate Then 20 μl serial dilutions of a given candidate compound was added. The plate was then placed in a 37° C. humidified 5% CO2 incubator and incubated for 72 hours. Then 50 μl of 50% TCA was added to each well to fix the proteins. The plate was then incubated for at least 1 hour at 4° C.
The liquid contents of the wells were discarded and the wells were washed five times with 200 μl of distilled water. After the final wash the plate was allowed to air dry for 20 minutes. 100 μl of the sulforhodamine B dye (0.4% dye in 1% acetic acid) was added. The plate was then incubated at room temperature for 20 minutes. After discarding the dye solution, the wells were washed five times with 200 μl of 1% acetic acid and then allowed to air dry for 20 minutes. At this time, 50 μl of 10 mM TRIS base was added. After a few minutes of incubation, the absorbance of each well at 490 nm was measured in a SpectraMax Pro microplate reader (Molecular Devices, Sunnyvale, Calif.).
The IC50 values for each candidate compound (the concentration of the agent that inhibited macrophage growth by 50%) were determined for the macrophages with the aid of the program SoftMax Pro (Molecular Devices, Sunnyvale, Calif.) using the following dose response equation: y=((a−d)/1+(x/c)^b)+d, where x=drug concentration; y=absorbance at 490 nm; a=upper asymptote; b=slope; c=IC50; and d=lower asymptote. FIG. 5 provides the graphical data for compound 1DWB667 as an example.

For “2,5-Bis[4-(2-pyridylimino)aminophenyl]furan [1DWB 667]”, the “Macrophage IC50 L. donovani” value [1] was 0.942 µg/mL, the “Macrophage IC50 L. donovani” value ([1]; listed as 1DWB667) was “about 1.4 μg/ml” and the “Macrophage IC50 L. mexicana” value [2] was 1.37 µg/mL. The “Macrophage IC50 L. mexicana” value ([2]; listed as DB667) was “about 1.4 μg/ml” and the “IC50 (macrophage toxicity)” value (J774.G8 macrophages) was 4.28 µg/mL.
With “2,5-Bis[2-methyl-4-(5-methyl-2-pyridylimino)aminophenyl]furan [DB 710]” the “Macrophage IC50 L. donovani” value [1] was 0.530 µg/mL, the “Macrophage IC50 L. mexicana” value [2] was 0.094 µg/mL and the “Macrophage IC50 L. mexicana” value ([2]; listed as DB710) was “about 0.1 μg/ml”. For the same substance, the “IC50 (macrophage toxicity)” value (J774.G8 macrophages) was 3.64 µg/mL and the “toxicity to the macrophage (in words)” value (J774.G8 macrophages) was “about less than or equal to DB 702 and 1DWB667”.
In the case of “2,5-Bis[2-chloro-4-(2-pyridylimino)aminophenyl]furan [DB 712]”, the “Macrophage IC50 L. donovani” value [1] is reported as 0.127 µg/mL, the “reduction of parasite burden in L. donovani infected macrophages (in words)” value ([1]; in vitro, visceral strain) is reported as “least effective in reducing parasite burden” and the “Macrophage IC50 L. mexicana” value [2] is reported as 0.689 µg/mL. For the same substance, the “reduction of parasite burden in L. mexicana infected macrophages (in words)” value ([2]; in vitro, cutaneous strain) was “least effective in reducing parasite burden”, the “IC50 (macrophage toxicity)” value (J774.G8 macrophages) was 3.39 µg/mL and the “toxicity to the macrophage (in words)” value (J774.G8 macrophages) was “about less than or equal to DB 702 and 1DWB667”.
In the case of “2,5-Bis[2-methyl-4-(2-pyridylimino)aminophenyl]furan [DB 702]”, the “Macrophage IC50 L. donovani” value [1] is reported as 0.063 µg/mL, the “Macrophage IC50 L. donovani” value ([1]; listed as DB702) is reported as “about 0.1 μg/ml” and the “Macrophage IC50 L. mexicana” value [2] is reported as 0.220 µg/mL. The “IC50 (macrophage toxicity)” value (J774.G8 macrophages) was 2.23 µg/mL.
With “2,5-Bis[2-methoxy-4-(2-pyridylimino)aminophenyl]furan [DB 709]” the “Macrophage IC50 L. donovani” value [1] was 0.104 µg/mL, the “Macrophage IC50 L. mexicana” value [2] was 0.127 µg/mL and the “Macrophage IC50 L. mexicana” value ([2]; listed as DB709) was “about 0.1 μg/ml”. For the same substance, the “IC50 (macrophage toxicity)” value (J774.G8 macrophages) was 0.199 µg/mL and the “toxicity to the macrophage (in words)” value (J774.G8 macrophages) was “toxic to the macrophage in vitro within the same range of toxicity to the amastigote within the macrophage”.
